Measurements published in publication PMC8480901 (PLoS ONE, 2021).
Values joined by “and” are separate entries in the source; they are usually repeats but may differ in a detail not shown here. Equal values may be shown once.

Tested on: human PBMCs
Assay: LPS-induced cytokine and chemokine levels in human PBMC supernatant (Luminex, ELISA)
Format: cell-based
Details: for CCl2, % reduction / CXCL1 % reduction / CXCL2 % reduction / MMP9 % reduction / CCl2, Mean / CXCL1, Mean / CXCL2, Mean / MMP9, Mean / CCl2, individual value / CXCL1, individual value / CXCL2, individual value / MMP9, individual value: LPS-stimulated PBMC supernatant; for CCl2, Mean / CXCL1, Mean / CXCL2, Mean / MMP9, Mean: sample size 2; for CCl2, individual value / CXCL1, individual value / CXCL2, individual value / MMP9, individual value: single replicate
[1] = LPS-stimulated human PBMC supernatant, 0.03 µM

CC[C@H]1OC(=O)[C@H](C)[C@@H](O[C@H]2C[C@@](C)(OC)[C@@H](O)[C@H](C)O2)[C@H](C)[C@@H](O[C@@H]2O[C@H](C)C[C@H](N(C)C)[C@H]2O)[C@](C)(O)C[C@@H](C)CN(C)[C@H](C)[C@@H](O)[C@]1(C)O [Azithromycin]
CCl2, % reduction (0.03 µM): -5.55% | CXCL1 % reduction (0.03 µM): -4.76% | CXCL2 % reduction (0.03 µM): 2.43% | MMP9 % reduction (0.03 µM): -1.46% | CCl2, Mean (0.03 µM): 1334 pg/mL | CXCL1, Mean (0.03 µM): 6234 pg/mL | CXCL2, Mean (0.03 µM): 4935 pg/mL | MMP9, Mean (0.03 µM): 3019 pg/mL | CCl2, individual value (0.03 µM): 1307 pg/mL and 1361 pg/mL | CXCL1, individual value (0.03 µM): 6199 pg/mL and 6268 pg/mL | CXCL2, individual value (0.03 µM): 5023 pg/mL and 4847 pg/mL | MMP9, individual value (0.03 µM): 3072 pg/mL and 2966 pg/mL | CCl2, % reduction (0.1 µM): -0.293% | CXCL1 % reduction (0.1 µM): -0.522% | CXCL2 % reduction (0.1 µM): 4.49% | MMP9 % reduction (0.1 µM): -3.72% | CCl2, Mean (0.1 µM): 1270 pg/mL | CXCL1, Mean (0.1 µM): 5984 pg/mL | CXCL2, Mean (0.1 µM): 4831 pg/mL | MMP9, Mean (0.1 µM): 3056 pg/mL | CCl2, individual value (0.1 µM): 1278 pg/mL and 1261 pg/mL | CXCL1, individual value (0.1 µM): 6035 pg/mL and 5932 pg/mL | CXCL2, individual value (0.1 µM): 4923 pg/mL and 4739 pg/mL | MMP9, individual value (0.1 µM): 3040 pg/mL and 3071 pg/mL | CCl2, % reduction (0.3 µM): -5.66% | CXCL1 % reduction (0.3 µM): -5% | CXCL2 % reduction (0.3 µM): 1.16% | MMP9 % reduction (0.3 µM): -0.427% | CCl2, Mean (0.3 µM): 1335 pg/mL | CXCL1, Mean (0.3 µM): 6237 pg/mL | CXCL2, Mean (0.3 µM): 4999 pg/mL | MMP9, Mean (0.3 µM): 3002 pg/mL | CCl2, individual value (0.3 µM): 1355 pg/mL and 1316 pg/mL | CXCL1, individual value (0.3 µM): 6416 pg/mL and 6058 pg/mL | CXCL2, individual value (0.3 µM): 4805 pg/mL and 5194 pg/mL | MMP9, individual value (0.3 µM): 2940 pg/mL and 3064 pg/mL | CCl2, % reduction (1 µM): -3.46% | CXCL2 % reduction (1 µM): 5.46% | MMP9 % reduction (1 µM): 0.166% | CCl2, Mean (1 µM): 1309 pg/mL | CXCL1, Mean (1 µM): 6015 pg/mL | CXCL2, Mean (1 µM): 4782 pg/mL | MMP9, Mean (1 µM): 2992 pg/mL | CCl2, individual value (1 µM): 1330 pg/mL and 1287 pg/mL | CXCL1, individual value (1 µM): 6000 pg/mL and 6030 pg/mL | CXCL2, individual value (1 µM): 4905 pg/mL and 4659 pg/mL | MMP9, individual value (1 µM): 2945 pg/mL | CCl2, % reduction (3 µM): -21% | CXCL1 % reduction (3 µM): -11% | CXCL2 % reduction (3 µM): -6% | MMP9 % reduction (3 µM): -3.25% | CCl2, Mean (3 µM): 1528 pg/mL | CXCL1, Mean (3 µM): 6579 pg/mL | CXCL2, Mean (3 µM): 5371 pg/mL | MMP9, Mean (3 µM): 3048 pg/mL | CCl2, individual value (3 µM): 1488 pg/mL and 1567 pg/mL | CXCL1, individual value (3 µM): 6461 pg/mL and 6697 pg/mL | CXCL2, individual value (3 µM): 5747 pg/mL and 4996 pg/mL | MMP9, individual value (3 µM): 3040 pg/mL and 3056 pg/mL | CCl2, % reduction (10 µM): -56% | CXCL1 % reduction (10 µM): -10% | CXCL2 % reduction (10 µM): 2% | MMP9 % reduction (10 µM): 7.45% | CCl2, Mean (10 µM): 1950 pg/mL | CXCL1, Mean (10 µM): 6547 pg/mL | CXCL2, Mean (10 µM): 4953 pg/mL | MMP9, Mean (10 µM): 2874 pg/mL | CCl2, individual value (10 µM): 1899 pg/mL and 2002 pg/mL | CXCL1, individual value (10 µM): 6457 pg/mL and 6637 pg/mL | CXCL2, individual value (10 µM): 4894 pg/mL and 5012 pg/mL | MMP9, individual value (10 µM): 2884 pg/mL and 2864 pg/mL | CCl2, % reduction (30 µM): -138% | CXCL1 % reduction (30 µM): 8% | CXCL2 % reduction (30 µM): 10% | MMP9 % reduction (30 µM): 5% | CCl2, Mean (30 µM): 2956 pg/mL | CXCL1, Mean (30 µM): 5474 pg/mL | CXCL2, Mean (30 µM): 4573 pg/mL | MMP9, Mean (30 µM): 2917 pg/mL | CCl2, individual value (30 µM): 3047 pg/mL and 2865 pg/mL | CXCL1, individual value (30 µM): 5594 pg/mL and 5354 pg/mL | CXCL2, individual value (30 µM): 4609 pg/mL and 4537 pg/mL | MMP9, individual value (30 µM): 2925 pg/mL and 2908 pg/mL | CCl2, % reduction (100 µM): -63% | CXCL1 % reduction (100 µM): 55% | CXCL2 % reduction (100 µM): 16% | CCl2, Mean (100 µM): 2038 pg/mL | CXCL1, Mean (100 µM): 2693 pg/mL | CXCL2, Mean (100 µM): 4264 pg/mL | MMP9, Mean (100 µM): 2975 pg/mL | CCl2, individual value (100 µM): 1970 pg/mL and 2105 pg/mL | CXCL1, individual value (100 µM): 2693 pg/mL | CXCL2, individual value (100 µM): 4200 pg/mL and 4328 pg/mL | MMP9, individual value (100 µM): 2977 pg/mL and 2972 pg/mL | GM-CSF % reduction [1]: 1.46% | GM-CSF [pg/mL], Mean [1]: 648 pg/mL | GM-CSF [pg/mL], individual value [1]: 664 pg/mL and 632 pg/mL | IL-1β % reduction [1]: 4.49% | IL-1β [pg/mL], Mean [1]: 12211 pg/mL | IL-1β [pg/mL], individual value [1]: 11901 pg/mL | IL-6 % reduction [1]: -0.732% | IL-6 [pg/mL], Mean [1]: 35164 pg/mL | IL-6 [pg/mL], individual value [1]: 34554 pg/mL and 35775 pg/mL | IL-8 % reduction [1]: -1.46% | IL-8 [pg/mL], Mean [1]: 3019 pg/mL | IL-8 [pg/mL], individual value [1]: 3072 pg/mL and 2966 pg/mL | TNF-α % reduction [1]: -24%
